In ChEMBL document CHEMBL1201862, “PubChem BioAssay data set” (2004):
Activity calls are given as the source filed them.

How the values were obtained:
[1] = target: T1, Methionyl-tRNA synthetase, putative (Trypanosoma brucei brucei, UniProt Q38C91); type: functional, Trypanosoma brucei brucei strain 927/4 GUTat10.1
T1 sequence (Q38C91 whole entry): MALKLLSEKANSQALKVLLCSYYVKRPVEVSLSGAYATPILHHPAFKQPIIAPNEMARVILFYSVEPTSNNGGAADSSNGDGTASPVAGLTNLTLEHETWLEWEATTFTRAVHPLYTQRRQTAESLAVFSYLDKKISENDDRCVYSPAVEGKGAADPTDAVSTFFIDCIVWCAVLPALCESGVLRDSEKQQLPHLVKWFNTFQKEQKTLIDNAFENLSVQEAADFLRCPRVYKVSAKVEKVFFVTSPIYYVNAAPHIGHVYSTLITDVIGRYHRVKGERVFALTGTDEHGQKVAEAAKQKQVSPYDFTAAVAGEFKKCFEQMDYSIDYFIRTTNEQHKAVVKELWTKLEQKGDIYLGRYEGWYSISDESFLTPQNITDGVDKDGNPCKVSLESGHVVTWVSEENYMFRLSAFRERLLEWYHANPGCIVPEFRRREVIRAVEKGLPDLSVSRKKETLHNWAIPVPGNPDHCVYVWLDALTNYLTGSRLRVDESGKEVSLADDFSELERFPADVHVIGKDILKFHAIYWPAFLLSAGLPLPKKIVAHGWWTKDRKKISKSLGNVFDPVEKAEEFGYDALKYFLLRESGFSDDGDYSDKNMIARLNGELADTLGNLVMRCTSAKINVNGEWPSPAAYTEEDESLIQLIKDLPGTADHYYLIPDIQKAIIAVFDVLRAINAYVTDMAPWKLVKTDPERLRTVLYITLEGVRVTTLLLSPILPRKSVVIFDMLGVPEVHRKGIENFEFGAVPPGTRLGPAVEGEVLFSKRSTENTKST

[2] = Late stage counterscreen for inhibitors of Trypanosoma brucei methionyl tRNA synthetase (MetRS): Luminescence-based cell-based high throughput dose response assay to identify compounds that are cytotoxic to Jurkat human T lymphocyte cells.; type: functional
[3] = Counterscreen for inhibitors of Trypanosoma brucei methionyl tRNA synthetase (MetRS): Luminescence-based cell-based high throughput dose response assay to identify compounds that are cytotoxic to Jurkat human T lymphocyte cells.; type: functional
[4] = target: T1, Methionyl-tRNA synthetase, putative; type: functional, Trypanosoma brucei brucei strain 927/4 GUTat10.1; remark: listed apart in the source
[5] = target: Luciferin 4-monooxygenase (Photinus pyralis, UniProt P08659); assay: Counter Screen for Luciferase-based Assay Positives. [Related pubchem assays: 620, 618, 411 ]
Chain of Luciferin 4-monooxygenase (P08659 whole entry): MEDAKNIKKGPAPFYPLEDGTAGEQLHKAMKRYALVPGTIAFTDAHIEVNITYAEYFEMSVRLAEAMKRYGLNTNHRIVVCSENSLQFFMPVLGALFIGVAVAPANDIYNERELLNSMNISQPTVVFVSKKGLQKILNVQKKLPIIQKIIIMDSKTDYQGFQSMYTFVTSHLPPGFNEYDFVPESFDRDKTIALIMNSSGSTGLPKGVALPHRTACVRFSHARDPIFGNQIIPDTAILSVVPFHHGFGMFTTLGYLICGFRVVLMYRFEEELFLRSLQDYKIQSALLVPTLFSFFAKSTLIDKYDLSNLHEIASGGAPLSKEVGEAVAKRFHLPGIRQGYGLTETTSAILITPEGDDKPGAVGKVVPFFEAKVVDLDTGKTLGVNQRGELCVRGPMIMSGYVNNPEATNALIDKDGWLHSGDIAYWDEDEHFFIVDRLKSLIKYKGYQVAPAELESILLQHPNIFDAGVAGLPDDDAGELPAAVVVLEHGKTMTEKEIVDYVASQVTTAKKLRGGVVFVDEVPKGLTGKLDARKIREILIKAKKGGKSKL

[6] = toxicity toward HEK293 cells – cell-based, dry powder samples, cytotoxicity control, dose response (AID 720567); type: functional
HT-1080 = assay: HT1080 cell viability loss – fluorescence readout (AID 620); type: functional, cell-based; details: Homo sapiens
[7] = target: 1-phosphatidylinositol 4,5-bisphosphate phosphodiesterase beta-3 (Homo sapiens, UniProt Q01970); assay: Fluorescence-based biochemical high throughput dose response assay to identify inhibitors of phospholipase C isozymes (PLC-B3).
[8] = target: 1-phosphatidylinositol 4,5-bisphosphate phosphodiesterase gamma-1 (Homo sapiens, UniProt P19174); assay: Counterscreen for inhibitors of phospholipase C isozymes (PLC-B3): Fluorescence-based biochemical high throughput dose response assay to identify inhibitors of phospholipase C isozymes (PLC-gamma1).
Chain of 1-phosphatidylinositol 4,5-bisphosphate phosphodiesterase gamma-1 (P19174 whole entry, the tested form may be a part): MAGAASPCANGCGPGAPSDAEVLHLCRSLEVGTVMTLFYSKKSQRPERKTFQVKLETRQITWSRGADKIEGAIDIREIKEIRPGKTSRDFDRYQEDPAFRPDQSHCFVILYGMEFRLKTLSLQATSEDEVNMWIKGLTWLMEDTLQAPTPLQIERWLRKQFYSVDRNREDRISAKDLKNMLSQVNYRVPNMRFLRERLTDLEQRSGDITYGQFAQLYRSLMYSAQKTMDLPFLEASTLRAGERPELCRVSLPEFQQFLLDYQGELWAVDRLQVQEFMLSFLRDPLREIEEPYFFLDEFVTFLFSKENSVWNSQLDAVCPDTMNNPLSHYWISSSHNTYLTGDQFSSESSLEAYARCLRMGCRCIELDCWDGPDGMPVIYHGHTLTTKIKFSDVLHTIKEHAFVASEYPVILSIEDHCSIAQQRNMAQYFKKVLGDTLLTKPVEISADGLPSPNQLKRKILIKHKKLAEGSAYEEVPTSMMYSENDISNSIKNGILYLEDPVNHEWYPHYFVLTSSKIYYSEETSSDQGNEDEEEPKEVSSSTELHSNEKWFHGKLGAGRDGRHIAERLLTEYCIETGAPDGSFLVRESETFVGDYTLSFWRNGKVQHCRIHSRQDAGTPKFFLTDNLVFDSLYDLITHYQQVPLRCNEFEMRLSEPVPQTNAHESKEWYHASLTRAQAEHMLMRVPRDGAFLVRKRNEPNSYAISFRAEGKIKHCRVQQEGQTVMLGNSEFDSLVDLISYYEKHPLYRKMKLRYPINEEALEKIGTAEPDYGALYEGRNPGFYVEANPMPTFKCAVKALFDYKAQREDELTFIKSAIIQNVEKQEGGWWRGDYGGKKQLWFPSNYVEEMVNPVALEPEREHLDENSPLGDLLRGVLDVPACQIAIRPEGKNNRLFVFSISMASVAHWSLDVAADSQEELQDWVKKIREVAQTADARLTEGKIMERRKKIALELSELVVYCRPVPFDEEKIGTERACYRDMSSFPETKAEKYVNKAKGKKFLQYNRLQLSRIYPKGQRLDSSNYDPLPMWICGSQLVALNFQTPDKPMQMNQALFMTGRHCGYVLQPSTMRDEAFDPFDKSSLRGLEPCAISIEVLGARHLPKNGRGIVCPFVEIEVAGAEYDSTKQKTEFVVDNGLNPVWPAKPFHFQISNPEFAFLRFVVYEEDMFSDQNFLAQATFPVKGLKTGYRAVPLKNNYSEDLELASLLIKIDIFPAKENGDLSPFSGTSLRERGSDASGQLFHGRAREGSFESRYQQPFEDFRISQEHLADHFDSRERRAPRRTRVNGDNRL

[9] = viability loss in CEM21 cells – cell-based, CellTiter-Glo luminescence, cherry-picked, cytotoxicity control for viral fusion inhibitor project, dose response (AID 652042); type: functional;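 further: potency for signal decrease meaning cytotoxicity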
[10] = viability loss in CEM21 cells – cell-based, plate reader, dry powder, cytotoxicity control, dose response (AID 687026); type: functional
[11] = blockers of HIV-1 envelope-mediated cell-cell fusion – cherry-pick, dose response (AID 652057); type: functional, cell-based
[12] = inhibition of Env-driven cell fusion – HIV entry, plate reader, dry powder, dose response (AID 687023); type: functional, cell-based
[13] = HepG2 hepatoma cell viability loss – plate reader, dry powder, cytotoxicity control, dose response (AID 651947); type: functional, cell-based
[14] = HeLa cell viability loss – plate reader, dry powder, cytotoxicity control, dose response (AID 651946); type: functional, cell-based
[15] = inhibitors of non-replicating M. tuberculosis, dose response, luciferase, dry powder (AID 651620); type: functional; details: Mycobacterium tuberculosis
[16] = growth inhibition of replicating M. tuberculosis, dose response, counter-screen, dry powder, IC90 (AID 651617); type: functional; details: Mycobacterium tuberculosis
[17] = inhibitors of non-replicating M. tuberculosis, dose response, luciferase, dry powder (AID 651619); type: functional; details: Mycobacterium tuberculosis
[18] = target: Sphingosine 1-phosphate receptor 1 (Homo sapiens, UniProt P21453); assay: Late-stage counterscreen for antagonists of kappa opioid receptor 1 (OPRK1): fluorescence-based cell-based dose response assay to identify antagonists of Sphingosine 1-Phosphate Receptor 1 (S1P1).; type: functional
Mu-type opioid receptor = Mu-type opioid receptor (Homo sapiens, UniProt P35372); assay: Late-stage results from the probe development effort to identify antagonists of OPRK1: luminescence-based cell-based dose response OPRM1 counterscreen, Set 2.; type: functional
Chain of Mu-type opioid receptor (P35372 whole entry): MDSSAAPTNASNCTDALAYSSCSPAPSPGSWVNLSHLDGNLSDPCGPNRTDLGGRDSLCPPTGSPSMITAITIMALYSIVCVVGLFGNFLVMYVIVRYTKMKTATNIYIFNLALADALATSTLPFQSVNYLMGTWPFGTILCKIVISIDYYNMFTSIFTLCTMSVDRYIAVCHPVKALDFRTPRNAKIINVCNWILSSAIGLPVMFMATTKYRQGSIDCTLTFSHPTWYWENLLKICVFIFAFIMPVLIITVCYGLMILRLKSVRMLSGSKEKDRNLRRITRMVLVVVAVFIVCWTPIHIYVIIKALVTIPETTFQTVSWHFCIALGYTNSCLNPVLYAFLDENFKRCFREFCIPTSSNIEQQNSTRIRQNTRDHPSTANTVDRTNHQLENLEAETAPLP

[19] = target: Delta-type opioid receptor (Homo sapiens, UniProt P41143); assay: Late-stage results from the probe development effort to identify antagonists of OPRK1: fluorescence-based cell-based dose response OPRD1 counterscreen, Set 2.; type: functional
Chain of Delta-type opioid receptor (P41143 whole entry): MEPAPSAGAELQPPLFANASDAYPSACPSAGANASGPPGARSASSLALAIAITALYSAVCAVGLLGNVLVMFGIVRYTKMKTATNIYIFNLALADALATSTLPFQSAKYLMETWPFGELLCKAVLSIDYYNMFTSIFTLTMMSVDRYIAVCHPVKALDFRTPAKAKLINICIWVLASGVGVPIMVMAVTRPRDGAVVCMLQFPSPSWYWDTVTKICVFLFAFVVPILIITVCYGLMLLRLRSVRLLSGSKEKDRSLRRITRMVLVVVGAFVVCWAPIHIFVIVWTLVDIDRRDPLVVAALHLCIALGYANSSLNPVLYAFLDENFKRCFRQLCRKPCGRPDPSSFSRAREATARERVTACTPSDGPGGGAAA

[20] = target: Kappa-type opioid receptor (Homo sapiens, UniProt P41145); assay: Late-stage fluorescence-based cell-based dose response assay for antagonists of kappa opioid receptor 1 (OPRK1).; type: functional
[21] = viability loss in HEK293T cells – cell-based, CellTiter-Glo luminescence, dry powder, set 6, cytotoxicity control, dose response (AID 651949); type: functional; details: HEK293
[22] = target: Glucose-6-phosphate 1-dehydrogenase (Homo sapiens, UniProt P11413); assay: inhibition of Homo sapiens G6PD, dose series – biochemical, fluorescence, selectivity assay for P. falciparum G6PD inhibitor project, dose response (AID 504792); type: functional
Chain of Glucose-6-phosphate 1-dehydrogenase (P11413 whole entry): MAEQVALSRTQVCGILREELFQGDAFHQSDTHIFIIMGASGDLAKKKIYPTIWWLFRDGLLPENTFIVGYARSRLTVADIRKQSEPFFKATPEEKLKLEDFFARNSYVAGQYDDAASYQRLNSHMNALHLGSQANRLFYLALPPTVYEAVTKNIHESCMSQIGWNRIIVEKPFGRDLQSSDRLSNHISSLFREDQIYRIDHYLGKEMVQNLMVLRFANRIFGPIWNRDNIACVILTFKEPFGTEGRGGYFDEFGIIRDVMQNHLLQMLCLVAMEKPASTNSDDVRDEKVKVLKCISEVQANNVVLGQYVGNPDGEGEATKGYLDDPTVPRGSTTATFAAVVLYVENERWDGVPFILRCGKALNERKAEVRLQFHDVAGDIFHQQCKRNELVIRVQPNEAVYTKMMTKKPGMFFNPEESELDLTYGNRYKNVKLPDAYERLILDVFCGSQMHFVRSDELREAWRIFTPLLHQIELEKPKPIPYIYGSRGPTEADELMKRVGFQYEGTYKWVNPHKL

[23] = blockers of FN fibrillogenesis by fibroblasts – AH1F cells, Alexa488-FN fluorescence, cherry-picks, dose response (AID 1035475); type: functional, cell-based
[24] = viability loss in HeLa cells – cytotoxicity control for MgcRacGAP inhibitor project, dose response (AID 624300); type: functional
cells [25] = details: A549
A-375 = assay: MITF: Counter assay: A375 proliferation Measured in Cell-Based System Using Plate Reader - 2084-03_Inhibitor_Dose_DryPowder_Activity. [Related pubchem assays (depositor defined):AID488944]; type: functional; details: Homo sapiens
[26] = target: T2, Microphthalmia-associated transcription factor (Homo sapiens, UniProt O75030); assay: reducers of TRPM1 reporter luminescence, concentration series – cell-based, SK-MEL-5, cherry-picked, set 3, MITF inhibitor project, dose response (AID 493073); type: functional;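 further: SK-MEL-5 melanoma cells with luciferase driven by the MITF target TRPM1 promoter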
T2 sequence (O75030 whole entry): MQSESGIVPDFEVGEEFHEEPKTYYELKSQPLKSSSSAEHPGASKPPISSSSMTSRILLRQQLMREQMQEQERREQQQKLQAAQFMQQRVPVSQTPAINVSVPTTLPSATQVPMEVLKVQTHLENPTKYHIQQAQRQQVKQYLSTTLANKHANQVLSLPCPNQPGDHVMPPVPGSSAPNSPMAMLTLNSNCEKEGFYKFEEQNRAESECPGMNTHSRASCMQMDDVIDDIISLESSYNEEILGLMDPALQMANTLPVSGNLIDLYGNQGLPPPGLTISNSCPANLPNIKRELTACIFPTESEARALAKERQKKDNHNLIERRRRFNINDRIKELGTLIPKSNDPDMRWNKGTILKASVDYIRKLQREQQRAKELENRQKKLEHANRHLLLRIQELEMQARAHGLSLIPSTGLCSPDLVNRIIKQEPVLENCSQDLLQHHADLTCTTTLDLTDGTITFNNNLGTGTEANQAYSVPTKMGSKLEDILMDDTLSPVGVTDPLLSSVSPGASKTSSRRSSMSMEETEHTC

cells [27] = details: HEK293
[28] = Counterscreen for activators of the function of SWI/SNF related, matrix associated, actin dependent regulator of chromatin, subfamily a, member 2 (SMARCA2, BRM): Luminescence-based cell-based high throughput dose response assay to identify non-selective compounds using the VP16 reporter assay.; type: functional
[29] = viability loss in HepG2 liver cells – cell-based, ATP luminescence, cherry-pick, set 6, cytotoxicity control, dose response (AID 1053125); type: functional
[30] = target: SWI/SNF-related matrix-associated actin-dependent regulator of chromatin subfamily A member 2 (Homo sapiens, UniProt P51531); assay: Luminescence-based cell-based high throughput dose response assay to identify activators of the function of SWI/SNF related, matrix associated, actin dependent regulator of chromatin, subfamily a, member 2 (SMARCA2, BRM).; type: functional
Chain of SWI/SNF-related matrix-associated actin-dependent regulator of chromatin subfamily A member 2 (P51531 whole entry): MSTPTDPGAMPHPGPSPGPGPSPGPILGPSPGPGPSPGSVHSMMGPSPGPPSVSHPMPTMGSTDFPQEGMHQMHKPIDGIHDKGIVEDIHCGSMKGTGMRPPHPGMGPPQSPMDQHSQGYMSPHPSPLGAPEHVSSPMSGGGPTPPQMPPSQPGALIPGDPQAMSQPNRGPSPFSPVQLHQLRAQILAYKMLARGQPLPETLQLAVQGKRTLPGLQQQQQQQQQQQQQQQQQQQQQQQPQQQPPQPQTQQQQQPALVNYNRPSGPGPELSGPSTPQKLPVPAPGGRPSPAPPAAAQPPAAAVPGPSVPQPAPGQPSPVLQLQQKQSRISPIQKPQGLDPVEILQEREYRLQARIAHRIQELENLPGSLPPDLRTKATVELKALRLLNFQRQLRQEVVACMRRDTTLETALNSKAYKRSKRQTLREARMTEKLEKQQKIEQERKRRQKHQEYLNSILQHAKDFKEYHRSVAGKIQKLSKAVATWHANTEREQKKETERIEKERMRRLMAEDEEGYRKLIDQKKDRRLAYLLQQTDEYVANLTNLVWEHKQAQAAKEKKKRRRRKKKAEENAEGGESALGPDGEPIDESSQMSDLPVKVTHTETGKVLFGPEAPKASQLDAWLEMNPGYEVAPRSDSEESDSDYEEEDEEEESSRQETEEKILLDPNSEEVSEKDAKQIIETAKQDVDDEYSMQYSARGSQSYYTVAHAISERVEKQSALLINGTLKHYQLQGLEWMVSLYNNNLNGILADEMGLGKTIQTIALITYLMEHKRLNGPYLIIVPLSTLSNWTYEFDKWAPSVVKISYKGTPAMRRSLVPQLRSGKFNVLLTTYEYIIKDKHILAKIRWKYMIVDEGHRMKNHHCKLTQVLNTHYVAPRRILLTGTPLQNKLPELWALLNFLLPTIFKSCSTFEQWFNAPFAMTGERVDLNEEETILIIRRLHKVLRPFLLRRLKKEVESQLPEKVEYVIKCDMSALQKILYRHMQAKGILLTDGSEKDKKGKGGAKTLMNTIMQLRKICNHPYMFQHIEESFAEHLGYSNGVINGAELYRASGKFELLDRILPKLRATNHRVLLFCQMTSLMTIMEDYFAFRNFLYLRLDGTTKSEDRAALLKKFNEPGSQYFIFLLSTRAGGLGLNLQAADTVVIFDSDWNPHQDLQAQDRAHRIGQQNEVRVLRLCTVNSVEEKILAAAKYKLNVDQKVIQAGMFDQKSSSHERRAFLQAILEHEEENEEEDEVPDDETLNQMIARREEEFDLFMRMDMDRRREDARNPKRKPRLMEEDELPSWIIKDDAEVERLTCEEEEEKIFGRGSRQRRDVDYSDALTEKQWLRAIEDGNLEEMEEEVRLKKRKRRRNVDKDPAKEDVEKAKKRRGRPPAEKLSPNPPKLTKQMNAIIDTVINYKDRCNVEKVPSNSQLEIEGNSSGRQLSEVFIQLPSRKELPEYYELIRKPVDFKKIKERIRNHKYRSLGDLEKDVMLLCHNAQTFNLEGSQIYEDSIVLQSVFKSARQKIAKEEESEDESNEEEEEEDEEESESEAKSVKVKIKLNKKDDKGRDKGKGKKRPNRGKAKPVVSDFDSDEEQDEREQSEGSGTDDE

Protein skinhead-1 = target: T3, Protein skinhead-1 (Caenorhabditis elegans, UniProt P34707); type: functional
T3 sequence (P34707 whole entry): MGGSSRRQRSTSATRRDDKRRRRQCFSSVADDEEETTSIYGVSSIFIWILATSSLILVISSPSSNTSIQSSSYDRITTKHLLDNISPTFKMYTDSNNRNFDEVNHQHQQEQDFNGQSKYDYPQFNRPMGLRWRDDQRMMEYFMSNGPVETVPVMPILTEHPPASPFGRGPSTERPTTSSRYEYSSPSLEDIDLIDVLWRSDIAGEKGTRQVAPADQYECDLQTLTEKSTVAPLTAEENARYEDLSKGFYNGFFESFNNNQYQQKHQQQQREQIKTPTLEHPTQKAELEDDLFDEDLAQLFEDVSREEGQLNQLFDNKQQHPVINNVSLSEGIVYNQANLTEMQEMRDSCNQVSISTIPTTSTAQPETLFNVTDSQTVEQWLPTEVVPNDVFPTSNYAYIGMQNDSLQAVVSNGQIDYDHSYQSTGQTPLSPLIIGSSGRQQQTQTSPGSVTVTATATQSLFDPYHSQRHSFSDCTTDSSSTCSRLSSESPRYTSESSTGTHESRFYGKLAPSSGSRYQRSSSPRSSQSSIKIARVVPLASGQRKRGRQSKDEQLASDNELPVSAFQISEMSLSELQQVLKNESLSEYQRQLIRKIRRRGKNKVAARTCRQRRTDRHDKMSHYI

[31] = target: T4, Oxysterols receptor LXR-beta (Homo sapiens, UniProt P55055); type: functional, cell-based;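 further: agonist activity at LXR measured by a cell-based luminescence readout across a dose range, run as a counterscreen for daf-12 agonists; potency for activation of Gal4-LXR reporter so compounds are agonists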
T4 sequence (P55055 whole entry): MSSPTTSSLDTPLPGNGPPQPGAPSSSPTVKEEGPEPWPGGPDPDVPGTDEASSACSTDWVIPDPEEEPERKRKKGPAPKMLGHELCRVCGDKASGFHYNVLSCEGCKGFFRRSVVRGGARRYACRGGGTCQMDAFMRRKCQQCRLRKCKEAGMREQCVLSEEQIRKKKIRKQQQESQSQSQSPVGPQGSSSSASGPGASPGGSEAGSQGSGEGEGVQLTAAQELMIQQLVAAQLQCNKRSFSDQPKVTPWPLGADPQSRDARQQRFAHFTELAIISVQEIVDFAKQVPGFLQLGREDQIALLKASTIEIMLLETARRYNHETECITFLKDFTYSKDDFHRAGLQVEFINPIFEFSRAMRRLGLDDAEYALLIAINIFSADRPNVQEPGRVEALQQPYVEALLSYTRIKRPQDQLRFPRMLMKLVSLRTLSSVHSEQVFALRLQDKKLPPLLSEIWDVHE

[32] = viability loss in HepG2 hepatoma cells – cell-based, ATP luminescence, cherry-pick, activator set 2, cytotoxicity control, dose response (AID 1053143); type: functional
[33] = Luminescence Cell-Based Dose Retest to Confirm Inhibitors of Cancer Stem Cells. [Related pubchem assays (depositor defined):AID2717, AID2721]; type: functional; details: Homo sapiens
[34] = Luminescence-based cell-based high throughput dose response assay to identify activators of the DAF-12 from the parasite S. stercoralis (ssDAF-12).; type: functional
[35] = target: T4, Oxysterols receptor LXR-beta; assay: LXR agonists, Gal4 luciferase reporter, dose response, counter-screen for ssDAF-12 agonist project, cell-based, luminescence, HEK293, S. stercoralis campaign (AID 720737); type: functional; details: read-out: IC50 (the source's name)

O=C(NCc1nc2ccccc2[nH]1)C1=C[C@H](c2ccc3c(c2)OCO3)C[C@H](OCCCCO)O1
IC50 [1]: 1.84 µM (active)
IC50 [2]: > 83.3 µM (inactive)
IC50 [3]: 83.3 µM (inactive)
IC50 [4]: 3.35 µM (active)

Cc1cc(NC(=O)CSc2nc(-c3ccco3)cc(C(F)(F)F)n2)no1
EC50 [5]: 1.59 µM (active)
AC50 [6]: > 30 µM (inactive)
EC50 (HT-1080): 6.41 µM (active)

O=C(NCc1ccc(F)cc1)c1cc2c(s1)CCCC2
IC50 [7]: > 123 µM (inactive)
IC50 [8]: > 123 µM (inactive)

C[C@@H]1CN([C@H](C)CO)C(=O)c2cccc(NS(=O)(=O)c3ccc(Cl)cc3)c2O[C@@H]1CN(C)Cc1ccc(Cl)c(Cl)c1
AC50 [9]: 52.9 µM (active)
AC50 [10]: 18.9 µM (active)
AC50 [11]: 1.45 µM (active)
AC50 [12]: 7.39 µM (active)

Clc1ccc(-c2nnc(SCc3ccccn3)o2)cc1
AC50 [13]: 27.8 µM (active)
AC50 [14]: > 52 µM (inactive)
IC90 [15]: 4 µM (active)
IC90 [16]: 62 µM (active)
IC90 [17]: 4 µM (active)

CN(C)c1cccc2c1c(NC(=O)Nc1ccc(OCc3ccccc3)cc1)nn2C
IC50 [18]: 34.9 µM (inactive)
IC50 (Mu-type opioid receptor): 42.9 µM (inactive)
IC50 [19]: 4.38 µM (active)
IC50 [20]: 1.82 µM (active)

Fc1ccc(Cn2cc(CSc3nnc(C4CCC4)o3)nn2)cc1
AC50 [21]: 47.1 µM (active)
IC90 [15]: 4 µM (active)
IC90 [16]: 250 µM (active)
IC90 [17]: 4 µM (active)

O=C(Nc1nc(-c2ccncc2)cs1)C1COc2ccccc2O1 (configuration not stated)
IC50 [22]: > 80 µM (inactive)
AC50 [23]: 0.512 µM (active)
CC50 [24]: 100 µM (active)

c1ccc2cc3c(NCCN4CCOCC4)ccnc3cc2c1
AC50 (cells [25]): 6.11 µM (active)
AC50 (A-375): 21.2 µM (active)
AC50 [26]: 2.91 µM (active)
AC50 (cells [27]): 9.44 µM (active)
EC50 [28]: > 91.2 µM (inactive)
AC50 [29]: 12 µM (active)
EC50 [30]: 11.1 µM (inactive)

Oc1cccc(/C=C/c2ccc3cccc(O)c3n2)c1
IC50 (Protein skinhead-1): > 100 µM (inactive)
EC50 [31]: > 67.6 µM (inactive)
AC50 [32]: 26 µM (active)
AC50 [33]: 3.91 µM (active)
IC50 [34]: > 67.6 µM (inactive)
EC50 [35]: > 67.6 µM (inactive)
